ChEMBL document CHEMBL1201862, “PubChem BioAssay data set” (2004)
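96-well plates; 48 h exposure; 5 concentrations. Endpoints by linear interpolation between flanking doses. Not reached: highest tested concentration assigned. GI50 marks 50% less growth.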 The source made the active and inactive calls. Rule as the data show it: active = GI50 up to about 1.1 µM and inactive = higher.

Key:
Experiment in all cases: DTP human tumour cell line panel, 48 h
786-0 = system: 786-0
A498 = system: A498
A549 = system: A549
BT-549 = system: BT-549
CAKI-1 = system: CAKI-1
CCRF-CEM = system: CCRF-CEM
EKVX = system: EKVX
HCC 2998 = system: HCC 2998
HCT-116 = system: HCT-116
HCT-15 = system: HCT-15
HOP-62 = system: HOP-62
HOP-92 = system: HOP-92
HT-29 = system: HT-29
Hs-578T = system: Hs-578T
IGROV-1 = system: IGROV-1
K562 = system: K562
KM12 = system: KM12
LOX IMVI = system: LOX IMVI
M14 = system: M14
MCF7 = system: MCF7
MDA-MB-231 = system: MDA-MB-231
MDA-MB-435 = system: MDA-MB-435
MDA-N = system: MDA-N
MOLT-4 = system: MOLT-4
Malme-3M = system: Malme-3M
NCI-H226 = system: NCI-H226
NCI-H460 = system: NCI-H460
NCI-H522 = system: NCI-H522
NCI/ADR-RES = system: NCI/ADR-RES
OVCAR-3 = system: OVCAR-3
OVCAR-4 = system: OVCAR-4
OVCAR-5 = system: OVCAR-5
OVCAR-8 = system: OVCAR-8
PC-3 = system: PC-3
RPMI-8226 = system: RPMI-8226
RXF 393 = system: RXF 393
SF-268 = system: SF-268
SF-295 = system: SF-295
SF-539 = system: SF-539
SK-MEL-28 = system: SK-MEL-28
SK-MEL-2 = system: SK-MEL-2
SK-MEL-5 = system: SK-MEL-5
SK-OV-3 = system: SK-OV-3
SN12C = system: SN12C
SNB-75 = system: SNB-75
SR = system: SR
SW-620 = system: SW-620
T47D = system: T47D
TK-10 = system: TK-10
U-251 = system: U-251
UACC-257 = system: UACC-257
UACC-62 = system: UACC-62
ACHN = system: ACHN
COLO 205 = system: COLO 205
DU-145 = system: DU-145
HL-60 = system: HL-60
NCI-H23 = system: NCI-H23
SNB-19 = system: SNB-19
UO-31 = system: UO-31

Measured: GI50

COC(=O)C(/C(=N/NC(N)=O)C(=O)Nc1ccc(C)cc1)c1nc2ccc([N+](=O)[O-])cc2nc1O (stereo not drawn)
inactive: 786-0 > 100 µM | A498 > 100 µM | A549 > 100 µM | BT-549 > 100 µM | CAKI-1 > 100 µM | CCRF-CEM > 10 µM | EKVX 56.1 µM | HCC 2998 70.1 µM | HCT-116 > 100 µM | HOP-62 > 100 µM | HOP-92 > 100 µM | HT-29 > 100 µM | Hs-578T 67.3 µM | IGROV-1 > 100 µM | K562 > 100 µM | KM12 74.3 µM | LOX IMVI 69.3 µM | M14 > 100 µM | MCF7 > 100 µM | MDA-MB-231 > 100 µM | MDA-MB-435 > 100 µM | MDA-N > 100 µM | MOLT-4 > 100 µM | Malme-3M > 100 µM | NCI-H226 > 100 µM | NCI-H460 52.2 µM | NCI-H522 27.2 µM | NCI/ADR-RES > 100 µM | OVCAR-3 > 100 µM | OVCAR-4 50.2 µM | OVCAR-5 > 100 µM | OVCAR-8 > 100 µM | PC-3 > 100 µM | RPMI-8226 > 100 µM | RXF 393 > 100 µM | SF-268 > 100 µM | SF-295 > 100 µM | SF-539 > 100 µM | SK-MEL-28 > 100 µM | SK-MEL-2 > 100 µM | SK-MEL-5 57.9 µM | SK-OV-3 > 100 µM | SN12C > 100 µM | SNB-75 > 100 µM | SR > 100 µM | SW-620 > 100 µM | T47D > 100 µM | TK-10 > 100 µM | U-251 > 100 µM | UACC-257 > 10 µM | UACC-62 > 100 µM
37.6 µM: HCT-15

COC(=O)C1=C(C(=O)OC)C(C(=O)c2ccccc2)N2N=C(c3ccc(Cl)cc3)C=CC12 (stereo not drawn)
9.62 µM: HCT-15
inactive: 786-0 > 100 µM | A498 > 100 µM | A549 31 µM | ACHN > 100 µM | BT-549 2.09 µM | CAKI-1 > 100 µM | CCRF-CEM 13.6 µM | COLO 205 > 100 µM | DU-145 > 100 µM | EKVX 8.81 µM | HCC 2998 > 100 µM | HCT-116 3.48 µM | HL-60 3.85 µM | HOP-62 > 100 µM | HOP-92 > 100 µM | HT-29 9.59 µM | K562 30.3 µM | KM12 13.1 µM | LOX IMVI 18.7 µM | M14 > 100 µM | MCF7 75.7 µM | MDA-MB-231 > 100 µM | MDA-MB-435 9.44 µM | MDA-N 15.3 µM | MOLT-4 5.69 µM | Malme-3M 11.2 µM | NCI-H226 13.9 µM | NCI-H23 26.1 µM | NCI-H460 37.1 µM | NCI-H522 5.07 µM | NCI/ADR-RES 8.07 µM | OVCAR-3 > 100 µM | OVCAR-4 19.2 µM | OVCAR-5 > 100 µM | OVCAR-8 12.4 µM | PC-3 9.82 µM | RPMI-8226 3.95 µM | RXF 393 4.15 µM | SF-268 6.55 µM | SF-295 44.7 µM | SF-539 > 100 µM | SK-MEL-28 > 100 µM | SK-MEL-2 > 100 µM | SK-MEL-5 9.23 µM | SK-OV-3 > 100 µM | SN12C 85.5 µM | SNB-19 > 100 µM | SR > 100 µM | SW-620 > 100 µM | T47D > 100 µM | TK-10 2.85 µM | U-251 > 100 µM | UACC-257 > 100 µM | UACC-62 23.9 µM | UO-31 > 100 µM
